Patent US12279615B2, “Wood preservative and method for producing same” (Koppers Performance Chemicals Inc., priority 2016, dated 2025)

Key:
[1] = test system: Fibroporia radiculosa; test: Laboratory soil-block decay resistance test, AWPA Standard E10-2015, treated southern pine sapwood cubes; type: cell-based; conditions: micronized penflufen
Experimental: (§1) The synergism was determined using a modified method as described by Kull et al. (Applied Microbiology, 1961 (9): 538-541). The modified method is described as below: QA/Qa+QB/Qb=SI • Where: • Qa=concentration of substance A alone which controls a particular decay fungus • Qb=concentration of substance B alone which controls a particular decay fungus • QA=concentration of substance A in the concentration of the A and B mixture at which controls a particular decay fungus • QB=concentration of substance B in the concentration of the A and B mixture at which controls a particular decay fungus • SI=1 means additivity • SI>1 means antagonism • SI<1 means synergism
(§2) Wood cubes measuring 19 mm×19 mm×19 mm were prepared from southern pine sapwood. One set of wood cubes were pressured treated with serial treating solutions containing penflufen fungicide. A second set of wood cubes were pressure treated with treating solutions containing the copper fungicide. A third set of wood cubes were pressure treated with treating solutions containing a mixture of the copper and penflufen. The treated wood samples were exposed to various fungi to conduct a laboratory decay resistance test following protocols as described in American Wood Protection Association Standard E10-2015. Before and after exposure to fungi, the wood samples were weighed to determine the weight percent loss. No weight loss means complete control of the fungal attack.
(§3) Wood cubes measuring 19 mm×19 mm×19 mm were prepared from southern pine sapwood. The wood cubes were pressure treated with treating solutions containing micronized penflufen. The treated wood samples were exposed to various fungi to conduct a laboratory decay resistance test following protocols as described in American Wood Protection Association Standard E10-2015. Before and after exposure to fungi, the wood samples were weighed to determine the weight percent loss.

[2] = test system: Gloeophyllum trabeum; test: as above; type: cell-based; conditions: micronized penflufen
Experimental: as §1, §2, §3

[3] = test system: Postia placenta; test: as above; type: cell-based; conditions: micronized penflufen
Experimental: as §1, §2, §3

[4] = test system: Coniophora puteana; test: as above; type: cell-based; conditions: micronized penflufen
Experimental: as §1, §2, §3

[5] = Particle size of penflufen after milling with 1 mm zirconia; type: physicochemical; conditions: milled with 1 mm zirconia
Description: The attainment of the injectable size, which generally requires both a d50 below 0.5 microns and a d98 less than three times the d50, was a surprising development. […] Milling a milling-resistant organic biocide, such as penflufen, with 1 mm zirconia provided a penflufen product with a d50 of 2 to 3 microns.

Q: With Cc1nn(C)c(F)c1C(=O)Nc1ccccc1C(C)CC(C)C (stereo not drawn) [Penflufen, penflufen] as the compound, how does the “Mean Percent Weigh Loss of Treated Wood Cubes” value (from here on “Mean Percent Weigh Loss”) ([1]; Penflufen Retention 8 g/m^3) read?
A: Its value is 12.0%.

Q: And the “Mean Percent Weigh Loss” value ([1]; Penflufen Retention 12 g/m^3)?
A: The value was 10.4%.

Q: And the “Mean Percent Weigh Loss” value ([1]; Penflufen Retention 16 g/m^3)?
A: Its value is 8.2%.

Q: And the “Mean Percent Weigh Loss” value ([1]; Penflufen Retention 24 g/m^3)?
A: Its value is 8.2%.

Q: What about the “Mean Percent Weigh Loss” value ([1]; Penflufen Retention 32 g/m^3) of the same compound?
A: Its value is 5.4%.

Q: What about the “Mean Percent Weigh Loss” value ([1]; Penflufen Retention 48 g/m^3) of the same compound?
A: The value was 5.7%.

Q: And the “Mean Percent Weigh Loss” value ([1]; Penflufen Retention 64 g/m^3)?
A: The value was 4.4%.

Q: And the “Mean Percent Weigh Loss” value ([1]; Penflufen Retention 80 g/m^3)?
A: The value was 3.0%.

Q: What about the “Mean Percent Weigh Loss” value ([2]; Penflufen Retention 8 g/m^3) of the same compound?
A: The value was 3.1%.

Q: What about the “Mean Percent Weigh Loss” value ([2]; Penflufen Retention 12 g/m^3) of the same compound?
A: Its value is 2.9%.

Q: What about the “Mean Percent Weigh Loss” value ([2]; Penflufen Retention 16 g/m^3) of the same compound?
A: Its value is 3.6%.

Q: And the “Mean Percent Weigh Loss” value ([2]; Penflufen Retention 24 g/m^3)?
A: Its value is 3.0%.

Q: What about the “Mean Percent Weigh Loss” value ([2]; Penflufen Retention 32 g/m^3) of the same compound?
A: The value was 3.5%.

Q: What about the “Mean Percent Weigh Loss” value ([2]; Penflufen Retention 48 g/m^3) of the same compound?
A: Its value is 3.0%.

Q: And the “Mean Percent Weigh Loss” value ([2]; Penflufen Retention 64 g/m^3)?
A: The value was 1.6%.

Q: What about the “Mean Percent Weigh Loss” value ([2]; Penflufen Retention 80 g/m^3) of the same compound?
A: Its value is 2.0%.

Q: And the “Mean Percent Weigh Loss” value ([3]; Penflufen Retention 8 g/m^3)?
A: The value was 3.5%.

Q: What about the “Mean Percent Weigh Loss” value ([3]; Penflufen Retention 12 g/m^3) of the same compound?
A: The value was 1.9%.

Q: What about the “Mean Percent Weigh Loss” value ([3]; Penflufen Retention 16 g/m^3) of the same compound?
A: The value was 2.1%.

Q: And the “Mean Percent Weigh Loss” value ([3]; Penflufen Retention 24 g/m^3)?
A: Its value is 1.2%.

Q: And the “Mean Percent Weigh Loss” value ([3]; Penflufen Retention 32 g/m^3)?
A: Its value is 1.2%.

Q: And the “Mean Percent Weigh Loss” value ([3]; Penflufen Retention 48 g/m^3)?
A: The value was 1.1%.

Q: What about the “Mean Percent Weigh Loss” value ([3]; Penflufen Retention 64 g/m^3) of the same compound?
A: Its value is 1.1%.

Q: And the “Mean Percent Weigh Loss” value ([3]; Penflufen Retention 80 g/m^3)?
A: Its value is 1.3%.

Q: What about the “Mean Percent Weigh Loss” value ([4]; Penflufen Retention 8 g/m^3) of the same compound?
A: The value was 1.4%.

Q: And the “Mean Percent Weigh Loss” value ([4]; Penflufen Retention 12 g/m^3)?
A: Its value is 1.6%.

Q: What about the “Mean Percent Weigh Loss” value ([4]; Penflufen Retention 16 g/m^3) of the same compound?
A: The value was 1.6%.

Q: What about the “Mean Percent Weigh Loss” value ([4]; Penflufen Retention 24 g/m^3) of the same compound?
A: The value was 1.5%.

Q: And the “Mean Percent Weigh Loss” value ([4]; Penflufen Retention 32 g/m^3)?
A: The value was 1.1%.

Q: And the “Mean Percent Weigh Loss” value ([4]; Penflufen Retention 48 g/m^3)?
A: The value was 1.4%.

Q: What about the “Mean Percent Weigh Loss” value ([4]; Penflufen Retention 64 g/m^3) of the same compound?
A: The value was 2.0%.

Q: What about the “Mean Percent Weigh Loss” value ([4]; Penflufen Retention 80 g/m^3) of the same compound?
A: The value was 1.3%.

Q: And the d50 [5]?
A: The d50 was 2 to 3 microns.
